Source: ChEMBL document CHEMBL2424540, “Synthesis and pharmacological evaluation of novel 1-(piperidin-4-yl)-1H-benzo[d]imidazol-2(3H)-one derivatives as potential antimicrobial agents” (2013)

Experiments:
Assay type in all cases: functional
[1] = system: Pseudomonas aeruginosa; assay: Antibacterial activity against Pseudomonas aeruginosa MTCC 424 at 50 mg/ml after 24 hrs by disk agar diffusion technique; details: MTCC 424, 24 h, read-out: DIZ
[2] = system: Candida albicans; assay: Antifungal activity against Candida albicans MTCC 227 at 50 mg/ml after 24 hrs by disk agar diffusion technique; details: MTCC 227, 24 h, read-out: DIZ
[3] = system: Staphylococcus aureus; assay: Antibacterial activity against Staphylococcus aureus MTCC 96 at 50 mg/ml after 24 hrs by disk agar diffusion technique; details: MTCC 96, 24 h, read-out: DIZ
[4] = system: Aspergillus clavatus; assay: Antifungal activity against Aspergillus clavatus MTCC 1323 at 50 mg/ml after 24 hrs by disk agar diffusion technique; details: MTCC 1323, 24 h, read-out: DIZ
[5] = system: Escherichia coli; assay: Antibacterial activity against Escherichia coli MTCC 443 at 50 mg/ml after 24 hrs by disk agar diffusion technique; details: MTCC 443, 24 h, read-out: DIZ
[6] = system: Streptococcus pyogenes; assay: Antibacterial activity against Streptococcus pyogenes MTCC 442 at 50 mg/ml after 24 hrs by disk agar diffusion technique; details: MTCC 442, 24 h, read-out: DIZ

| Structure (SMILES) | zone of inhibition at 50000 µg/mL [1] [mm] | zone of inhibition at 50000 µg/mL [2] [mm] | zone of inhibition at 50000 µg/mL [3] [mm] | zone of inhibition at 50000 µg/mL [4] [mm] | zone of inhibition at 50000 µg/mL [5] [mm] | zone of inhibition at 50000 µg/mL [6] [mm] |
| --- | --- | --- | --- | --- | --- | --- |
| CCOC(=O)Cn1c(=O)n(C2CCN(C3CCc4cc(OC)c(OC)cc43)CC2)c2ccc(Cl)cc21 (centres undefined) | 11 | 15 | 14 | 14 | 12 | 16 |
| CCOC(=O)n1c(=O)n(C2CCN(C3CCc4cc(OC)c(OC)cc43)CC2)c2ccc(Cl)cc21 (centres undefined) | 13 | 7 | 11 | 21 | 15 | 14 |
| CCN(CC)C(=O)n1c(=O)n(C2CCN(C3CCc4cc(OC)c(OC)cc43)CC2)c2ccc(Cl)cc21 (centres undefined) | 8 | 10 | 20 | 11 | 13 | 11 |
| COc1cc2c(cc1OC)C(N1CCC(n3c(=O)n(CCCl)c4cc(Cl)ccc43)CC1)CC2 (centres undefined) | 11 | 17 | 18 | 13 | 10 | 16 |
| COc1cc2c(cc1OC)C(N1CCC(n3c(=O)n(CCCN(C)C)c4cc(Cl)ccc43)CC1)CC2 (centres undefined) | 16 | 18 | 13 | 10 | 14 | 18 |
| COCn1c(=O)n(C2CCN(C3CCc4cc(OC)c(OC)cc43)CC2)c2ccc(Cl)cc21 (centres undefined) | 15 | 24 | 10 | 15 | 14 | 13 |
| COc1cc2c(cc1OC)C(N1CCC(n3c(=O)n(Cc4ccccc4)c4cc(Cl)ccc43)CC1)CC2 (centres undefined) | 13 | 25 | 11 | 17 | 11 | 10 |
| COc1cc2c(cc1OC)C(N1CCC(n3c(=O)n(Cc4ccc(Cl)cc4)c4cc(Cl)ccc43)CC1)CC2 (centres undefined) | 9 | 16 | 17 | 19 | 19 | 9 |
| COc1cc2c(cc1OC)C(N1CCC(n3c(=O)n(Cc4ccc([N+](=O)[O-])cc4)c4cc(Cl)ccc43)CC1)CC2 (centres undefined) | 10 | 17 | 13 | 22 | 17 | 11 |
| CC1(C)S[C@@H]2[C@H](NC(=O)[C@H](N)c3ccccc3)C(=O)N2[C@H]1C(=O)O [AMPICILLIN] | 20 | – | 18 | – | 20 | 19 |
| O=C(N[C@H](CO)[C@H](O)c1ccc([N+](=O)[O-])cc1)C(Cl)Cl [CHLORAMPHENICOL] | 21 | – | 21 | – | 23 | 20 |
| OC(Cn1cncn1)(Cn1cncn1)c1ccc(F)cc1F [FLUCONAZOLE] | – | 24 | – | 24 | – | – |
